Laboratory results reported in patent US20080089910A1, “Attenuated Herpes Simplex Virus Type-2, Vectors Thereof and Immunogenic Compositions Thereof” (priority 2004, published 2008).

Columns and labels:
Assay in all cases: Viral plaque reduction assay, sensitivity to acyclovir
Type in all cases: cell-based, herpes simplex virus type 2
HSV-2 186 = settings: Human alphaherpesvirus 2; HSV-2 186 on Vero cells, plaques after 72 hours; read-out: IC50 (50% inhibitory concentration) of acyclovir
Method: (§1) Each of the viruses were plated on Vero cell monolayers in the presence of various concentrations (0-16 μM) of acyclovir. Plaques that formed after 72 hours post infection were counted and the data was used to generate the IC50 of ACV for each virus.
(§2) Plaque reduction assay. Plaque reduction assay was used as described previously (Visalli et al., 2003) with the following modifications. Vero cells were infected with approximately 50 to 100 PFU of virus per well. Acyclovir (ACV) was diluted to the desired concentrations in Dulbecco's Modified Eagle Medium (DMEM) and applied to uninfected Vero monolayers for a thirty minute pre-incubation before the addition of virus. Positive control wells received virus without ACV. Monolayers were incubated for three days at 37° C., fixed, and stained. Plaques were counted, and the data are presented as the mean of at least three independent assays.

UL24R = settings: Human alphaherpesvirus 2; UL24R on Vero cells, plaques after 72 hours; read-out: IC50 (50% inhibitory concentration) of acyclovir
Method: as §1, §2

UL24Δ = settings: Human alphaherpesvirus 2; UL24Δ on Vero cells, plaques after 72 hours; read-out: IC50 (50% inhibitory concentration) of acyclovir
Method: as §1, §2

Measured: IC50

Nc1nc2c(ncn2COCCO)c(=O)[nH]1 [acyclovir]
~3000 nM: all assays above
